Numbered stars: 1 amine (or outer) side, 2 acyl side, 3 side chain; on linkers, the order of the positions; unused ones are H or OH. Bridge positions count the residues as written; N and C are the ends. Square brackets hold non-standard residues; d marks the D form. Side chains are listed from the residue outwards. Peptide text beside a SMILES is read from it. * marks the point of attachment. C18 diacid = O=C(O)CCCCCCCCCCCCCCCCC(=O)*; γGlu = O=C(O)[C@H](CCC(=O)[*:2])N[*:1]; Aib = CC(C)(N)C(=O)O
How the values were obtained:
[1] = molecular target: T1, human amylin receptor (calcitonin receptor co-expressed with receptor activity modifying protein, RAMP3) (hAMYR3) (Homo sapiens, UniProt O60896+P30988); experiment: cAMP production in 1321N1 cells with stable recombinant expression of human amylin receptor (hAMYR3); format: cell-based; details: for Ratio (selectivity hAMYR vs hCTR, ratio of EC50 values at the two receptors): EC50 hCTR / EC50 hAMYR3; for EC50: cAMP, 1321N1 cells, assay buffer with 0.1% BSA, read-out: EC50 (pM) hAMYR3
T1 construct: expressed in transfected cells
T1 sequence (P30988 25-474): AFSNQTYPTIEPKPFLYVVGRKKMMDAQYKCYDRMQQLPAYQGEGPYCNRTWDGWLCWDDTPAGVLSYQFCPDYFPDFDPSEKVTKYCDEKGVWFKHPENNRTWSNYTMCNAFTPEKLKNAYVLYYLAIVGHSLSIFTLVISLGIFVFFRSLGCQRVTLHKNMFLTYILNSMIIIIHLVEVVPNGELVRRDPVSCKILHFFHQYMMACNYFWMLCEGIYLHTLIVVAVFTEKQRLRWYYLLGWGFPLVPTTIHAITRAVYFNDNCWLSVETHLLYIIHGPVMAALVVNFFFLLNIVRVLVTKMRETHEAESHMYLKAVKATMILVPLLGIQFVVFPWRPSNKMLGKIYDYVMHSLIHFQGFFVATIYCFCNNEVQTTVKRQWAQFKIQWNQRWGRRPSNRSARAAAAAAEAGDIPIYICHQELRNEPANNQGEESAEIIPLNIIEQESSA
T1 sequence (O60896 24-148 partner): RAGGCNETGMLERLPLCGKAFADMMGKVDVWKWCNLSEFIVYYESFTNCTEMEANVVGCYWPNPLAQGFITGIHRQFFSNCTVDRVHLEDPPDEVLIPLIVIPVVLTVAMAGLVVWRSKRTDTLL
Method in brief: (§1)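 Thawed cells in HBSS/0.1% BSA/25 mM HEPES pH 7.4 with 0.5 mM IBMX were incubated with peptides 30 min at room temperature; cAMP read by HTRF. EC50 from 4-parameter fit of % activation relative to maximal amylin or calcitonin effect.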

[2] = molecular target: T2, human calcitonin receptor (hCTR) (Homo sapiens, UniProt P30988); experiment: cAMP production in 1321N1 cells with stable recombinant expression of human calcitonin receptor (hCTR); format: cell-based; details: cAMP, 1321N1 cells, assay buffer with 0.1% BSA; read-out: EC50 (pM) hCTR
T2 construct: expressed in transfected cells
T2 sequence (P30988 25-474): T1 sequence (P30988 25-474)
Method in brief: as §1

| Structure (SMILES) | Ratio (selectivity hAMYR vs hCTR, ratio of EC50 values at the two receptors) [1] | EC50 [1] [pM] | EC50 [2] [pM] |
| --- | --- | --- | --- |
| CC[C@H](C)[C@H](NC(=O)[C@@H]1CCCN1C(=O)CNC(=O)[C@H](Cc1ccccc1)NC(=O)[C@H](CC(N)=O)NC(=O)[C@H](CC(N)=O)NC(=O)[C@H](CO)NC(=O)[C@H](CO)NC(=O)[C@H](Cc1c[nH]cn1)NC(=O)C(C)(C)NC(=O)[C@H](CC(C)C)NC(=O)[C@H](Cc1ccccc1)NC(=O)[C@H](CC(N)=O)NC(=O)[C@H](C)NC(=O)[C@H](CC(C)C)NC(=O)[C@H](CCCNC(=N)N)NC(=O)[C@H](CCC(N)=O)NC(=O)[C@@H](NC(=O)[C@H](C)NC(=O)[C@@H]1CSSC[C@H](NC(=O)[C@H](CCCCN)NC(=O)[C@@H](N)CCCCNC(=O)CC[C@H](NC(=O)CCCCCCCCCCCCCCCCC(=O)O)C(=O)O)C(=O)N[C@@H](CC(N)=O)C(=O)N[C@@H]([C@@H](C)O)C(=O)N[C@@H](C)C(=O)N[C@@H]([C@@H](C)O)C(=O)N1)[C@@H](C)O)C(=O)N[C@@H](CC(C)C)C(=O)N1CCC[C@H]1C(=O)N1CCC[C@H]1C(=O)N[C@H](C(=O)N[C@@H](CC(N)=O)C(=O)N[C@H](C(=O)NC(C)(C)C(=O)N[C@@H](CO)C(=O)N[C@@H](CC(N)=O)C(=O)N[C@H](C(=O)N[C@@H](Cc1ccc(O)cc1)C(N)=O)[C@@H](C)O)C(C)C)[C@@H](C)O [Peptide 100, K(γE-C18diacid)K[CNTATC]ATQRLANFL(Aib)HSSNNFGPILPPTNV(Aib)SNTY-amide] (H-K([γGlu-C18 diacid])KCNTATCATQRLANFL[Aib]HSSNNFGPILPPTNV[Aib]SNTY-NH2; disulfide 3-8; N-terminus assumed) | 1 | 364 | 459 |
| CC[C@H](C)[C@H](NC(=O)[C@@H]1CCCN1C(=O)CNC(=O)[C@H](Cc1ccccc1)NC(=O)[C@H](CC(N)=O)NC(=O)[C@H](CC(N)=O)NC(=O)[C@H](CO)NC(=O)[C@H](CO)NC(=O)[C@H](Cc1c[nH]cn1)NC(=O)C(C)(C)NC(=O)[C@H](CC(C)C)NC(=O)[C@H](Cc1ccccc1)NC(=O)[C@H](CC(N)=O)NC(=O)[C@H](C)NC(=O)[C@H](CC(C)C)NC(=O)[C@H](CCCNC(=N)N)NC(=O)[C@H](CCC(N)=O)NC(=O)[C@@H](NC(=O)[C@H](C)NC(=O)[C@@H]1CSSC[C@H](NC(=O)[C@H](CCCCN)NC(=O)[C@@H](N)CCCCNC(=O)CC[C@H](NC(=O)CCCCCCCCCCCCCCCCC(=O)O)C(=O)O)C(=O)N[C@@H](CC(N)=O)C(=O)N[C@@H]([C@@H](C)O)C(=O)N[C@@H](C)C(=O)N[C@@H]([C@@H](C)O)C(=O)N1)[C@@H](C)O)C(=O)N[C@@H](CC(C)C)C(=O)N1CCC[C@H]1C(=O)N1CCC[C@H]1C(=O)N[C@H](C(=O)N[C@@H](Cc1c[nH]cn1)C(=O)N[C@H](C(=O)NCC(=O)N[C@@H](CO)C(=O)N[C@@H](CCC(=O)O)C(=O)N[C@H](C(=O)N[C@@H](Cc1ccc(O)cc1)C(N)=O)[C@@H](C)O)C(C)C)[C@@H](C)O [Peptide 146] (H-K([γGlu-C18 diacid])KCNTATCATQRLANFL[Aib]HSSNNFGPILPPTHVGSETY-NH2; disulfide 3-8; N-terminus assumed) | 1.9 | 2530 | 4870 |
| CC[C@H](C)[C@H](NC(=O)[C@@H]1CCCN1C(=O)CNC(=O)[C@H](Cc1ccccc1)NC(=O)[C@H](CC(N)=O)NC(=O)C(C)(C)NC(=O)[C@H](CO)NC(=O)[C@H](CO)NC(=O)[C@H](Cc1c[nH]cn1)NC(=O)[C@@H](NC(=O)[C@H](CC(C)C)NC(=O)[C@H](Cc1ccccc1)NC(=O)[C@H](CC(N)=O)NC(=O)[C@H](C)NC(=O)[C@H](CC(C)C)NC(=O)[C@H](CCCNC(=N)N)NC(=O)[C@H](CCC(N)=O)NC(=O)[C@@H](NC(=O)[C@H](C)NC(=O)[C@@H]1CSSC[C@H](NC(=O)[C@@H](N)CCCCNC(=O)CC[C@H](NC(=O)CC[C@H](NC(=O)CCCCCCCCCCCCCCCCC(=O)O)C(=O)O)C(=O)O)C(=O)N[C@@H](CC(N)=O)C(=O)N[C@@H]([C@@H](C)O)C(=O)N[C@@H](C)C(=O)N[C@@H]([C@@H](C)O)C(=O)N1)[C@@H](C)O)C(C)C)C(=O)N[C@@H](CC(C)C)C(=O)N1CCC[C@H]1C(=O)N1CCC[C@H]1C(=O)N[C@H](C(=O)N[C@@H](CCCNC(=N)N)C(=O)N[C@H](C(=O)NCC(=O)N[C@@H](CO)C(=O)N[C@@H](CC(N)=O)C(=O)N[C@H](C(=O)N[C@@H](Cc1ccc(O)cc1)C(N)=O)[C@@H](C)O)C(C)C)[C@@H](C)O [Peptide 67, K(γE-γE-C18diacid)[CNTATC]ATQRLANFLVHSS(Aib)NFGPILPPTRVGSNTY-amide] (H-K([γGlu-γGlu-C18 diacid])CNTATCATQRLANFLVHSS[Aib]NFGPILPPTRVGSNTY-NH2; disulfide 2-7; N-terminus assumed) | 30 | 132 | 4010 |
| CC[C@H](C)[C@H](NC(=O)[C@@H]1CCCN1C(=O)CNC(=O)[C@H](Cc1ccccc1)NC(=O)[C@H](CC(N)=O)NC(=O)C(C)(C)NC(=O)[C@H](CO)NC(=O)[C@H](CO)NC(=O)[C@H](Cc1c[nH]cn1)NC(=O)[C@@H](NC(=O)[C@H](CC(C)C)NC(=O)[C@H](Cc1ccccc1)NC(=O)[C@H](Cc1c[nH]cn1)NC(=O)[C@H](C)NC(=O)[C@H](CC(C)C)NC(=O)[C@H](CCCNC(=N)N)NC(=O)[C@H](CCC(N)=O)NC(=O)[C@@H](NC(=O)[C@H](C)NC(=O)[C@@H]1CSSC[C@H](NC(=O)[C@H](CCCCN)NC(=O)[C@@H](N)CCCCNC(=O)CC[C@H](NC(=O)CCCCCCCCCCCCCCCCC(=O)O)C(=O)O)C(=O)N[C@@H](CC(N)=O)C(=O)N[C@@H]([C@@H](C)O)C(=O)N[C@@H](C)C(=O)N[C@@H]([C@@H](C)O)C(=O)N1)[C@@H](C)O)C(C)C)C(=O)N[C@@H](CC(C)C)C(=O)N1CCC[C@H]1C(=O)N1CCC[C@H]1C(=O)N[C@H](C(=O)N[C@@H](CC(N)=O)C(=O)N[C@H](C(=O)NCC(=O)N[C@@H](CO)C(=O)N[C@@H](CC(N)=O)C(=O)N[C@H](C(=O)N[C@@H](Cc1ccc(O)cc1)C(N)=O)[C@@H](C)O)C(C)C)[C@@H](C)O [Peptide 46, K(γE-C18diacid)K[CNTATC]ATQRLAHFLVHSS(Aib)NFGPILPPTNVGSNTY-amide] (H-K([γGlu-C18 diacid])KCNTATCATQRLAHFLVHSS[Aib]NFGPILPPTNVGSNTY-NH2; disulfide 3-8) | 3 | 109 | 362 |
